Experimental findings from patent publication US8907103B2, “Glucagon antagonists” (Metabasis Therapeutics, Inc., priority 2008, dated 2014) are described below.

pEC50, pIC50: −log10 of the molar value.

Series [1] can be described thus: Oral bioavailability in the rat. It counts as in vivo.
The target in a further series is T1, human glucagon receptor (Homo sapiens, UniProt P47871).
T1 construct: host or cells: human liver samples or a recombinant cell line (alternatives)
In words: Human glucagon receptor affinity ([125I]glucagon displacement, membrane preparation). It counts as binding. The conditions noted are these: human glucagon receptor binding assay; stereo column says racemic or R-isomer; read-out: Hu IC50. The method, then: Compounds provided herein are dissolved in a suitable solvent (e.g., dimethlysulfoxide) at a concentration of 10 mM and then diluted in buffer (e.g., 50 mM Hepes, pH 7.4, 5 mM MgCl2, 1 mM CaCl2, and 0.2% BSA) to concentrations ranging from 1 nM to 100 μM. Compounds (20 μL/well) and [^125I]glucagon at the final concentration of 0.125 nM (20 μl/well) (Perkin Elmer) are added to and mixed in wells of a 96-well plate (Costar, Corning) containing 120 μL of buffer. Next, an appropriate aliquot of a membrane preparation containing the human glucagon receptor (isolated from human liver samples or obtained from a recombinant cell line) is added to the wells. The binding mixtures are incubated for 2 hrs at room temperature. In the meantime, a MultiScreen 96-well filter plate (Millipore) is treated with 200 μL of the buffer, which is vacuumed through the filter just before the binding mixtures are transferred to the plate. At the end of incubation, binding mixtures are transferred to the wells of the MultiScreen 96-well filter plate and filtered through by applying vacuum. The plate is washed once with 200 μL per well of the buffer, and the filters are dried and counted using a gamma counter.

The subject of a further series is db/db mouse. In words: Glucose lowering in db/db mice. It counts as in vivo. To be noted: oral gavage, freely-feeding db/db mice, 100% = normalization to lean db/+, read-out: % Glu lowering in db/db mouse @ 30 mg/kg. The protocol:
To assess the effects of compounds provided herein on blood glucose levels in the db/db mouse, an animal model of type 2 diabetes, compounds are dissolved in polyethylene glycol-400 and administered by oral gavage to db/db mice in the freely-feeding state at doses of 30 and/or 100 mg/kg. Blood glucose levels are assessed in blood samples obtained by tail bleed at baseline (prior to drug administration) and at regular time intervals over 24 hrs using a portable glucometer such as the OneTouch or HemoCue meters. The magnitude of blood glucose lowering elicited by the compounds provided herein is determined by comparison to those in db/db mice administered only the vehicle. The percentage glucose lowering is calculated by factoring in the blood glucose levels of vehicle-treated lean db/+ (heterozygote) mice, with 100% representing the normalization of blood glucose levels from the hyperglycemic state (vehicle-treated db/db mice) to the normoglycemic state (vehicle-treated db/+ mice).

A further series concerns human hepatocytes. In words: Functional antagonism of glucagon-stimulated glucose production in hepatocytes. It counts as cell-based. The conditions noted are these: human hepatocyte assay, 1 nM glucagon; read-out: Hu Hepatocyte EC50. The method, then:
Primary human, monkey, dog, rat, or mouse hepatocytes are seeded onto collagen-coated 24-well plates in Williams E medium (supplemented with 10% fetal bovine serum) and incubated at 37° C. overnight in M199 medium (supplemented with 15 mM glucose and 10 nM human insulin). The following day cells are washed twice with a glucose-free Kreb-bicarbonate buffer, pH 7.4, containing 0.1% BSA. Cells are then incubated at 37° C. with the aforementioned buffer containing 1 nM glucagon and varying concentrations of a glucagon antagonist (0-100 microM). Control wells without glucagon or antagonist are also included. After 1 hour, an aliquot of the medium is removed and analyzed for glucose content by means of the glucose oxidase method. The background glucose levels observed in the control wells are subtracted from the glucagon and antagonist containing wells. A graph of % glucose concentration vs drug concentration is plotted and an EC50 value for inhibition of glucose production generated using Sigmaplot software (SAS, Cary, N.C.). Alternatively, intracellular cAMP levels are measured using standard kits and EC50 values determined by plotting these levels against drug concentration. Antagonists of the glucagon receptor inhibit glucagon-induced cAMP production.

T1 sequence (P47871 26-477): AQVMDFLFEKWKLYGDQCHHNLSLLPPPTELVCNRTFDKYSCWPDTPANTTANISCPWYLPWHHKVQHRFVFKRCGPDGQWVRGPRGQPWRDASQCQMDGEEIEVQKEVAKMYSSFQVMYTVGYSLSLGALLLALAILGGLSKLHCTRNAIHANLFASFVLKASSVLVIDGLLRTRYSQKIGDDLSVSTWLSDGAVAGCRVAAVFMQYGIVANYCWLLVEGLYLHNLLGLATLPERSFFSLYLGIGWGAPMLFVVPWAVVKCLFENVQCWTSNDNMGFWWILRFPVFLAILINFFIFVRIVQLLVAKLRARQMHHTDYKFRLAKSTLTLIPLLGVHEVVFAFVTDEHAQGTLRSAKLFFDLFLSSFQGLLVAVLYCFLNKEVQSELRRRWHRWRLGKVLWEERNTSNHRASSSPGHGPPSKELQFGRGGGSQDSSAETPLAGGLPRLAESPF

`Cc1cc(C)c(-c2ccc(NC(=O)[C@H](Cc3ccc(C(=O)NCCS(=O)(=O)O)cc3)c3ccc(-c4ccc(C(C)(C)C)cc4)cc3)cc2)c(C)c1` showed an OBAV in rat in series [1] of 73%. In addition, the pIC50 on human glucagon receptor was 8.30. Moreover, in the series with db/db mouse, the inhibition in vivo at 30 mg/kg was 57%. In addition, the negative-log EC50 (pEC50) in the series on human hepatocytes is 8.40.
For the molecule `CC1(C)CC=C(c2cccc(C(Cc3ccc(C(=O)NCCS(=O)(=O)O)cc3)C(=O)Nc3ccc(-c4ccc(Cl)cc4Cl)cc3)c2)CC1` (racemic), the pIC50 on human glucagon receptor was 7.82. Further, the inhibition in vivo at 30 mg/kg with db/db mouse came to 28%. For the same molecule, the pEC50 with human hepatocytes is 7.52.
As for `CC1(C)CC=C(c2ccc(NC(=O)[C@H](Cc3ccc(C(=O)NCCS(=O)(=O)O)cc3)c3ccc(-c4ccc(C(C)(C)C)cc4)cc3)cc2)CC1`, in series [1], the OBAV in rat is 69%. Further, the negative logarithm of the IC50 (pIC50) on human glucagon receptor was 8.10. In the series on db/db mouse, the inhibition in vivo at 30 mg/kg is 29%. In addition, in the series on human hepatocytes, the pEC50 is 7.44.
For `Cc1cc(Cl)ccc1-c1ccc(NC(=O)C(Cc2ccc(C(=O)NCCS(=O)(=O)O)cc2)c2ccc(C3CCC(C(C)(C)C)CC3)cc2)cc1` (racemic), on human glucagon receptor, the negative logarithm of the IC50 (pIC50) is 7.92. Moreover, the inhibition in vivo at 30 mg/kg in the series with db/db mouse was 58%. In the series on human hepatocytes, the pEC50 is 7.39.
Take `Cc1cc(Cl)ccc1-c1ccc(NC(=O)C(Cc2ccc(C(=O)NCCS(=O)(=O)O)cc2)c2ccc(C3=CCC(C)(C)CC3)cc2)cc1` (racemic): in series [1], the OBAV in rat is 48%. Moreover, the negative-log IC50 (pIC50) at human glucagon receptor is 7.77. The inhibition in vivo at 30 mg/kg in the series with db/db mouse was found to be 42%. Further, the pEC50 in the series with human hepatocytes is 7.31.
As for `Cc1cc(Cl)ccc1-c1ccc(NC(=O)[C@H](Cc2ccc(C(=O)NCCS(=O)(=O)O)cc2)c2cccc(C3CCC(C)(C)CC3)c2)cc1`, the OBAV in rat in series [1] was 52%. In addition, the pIC50 at human glucagon receptor was 8.00. Moreover, the inhibition in vivo at 30 mg/kg with db/db mouse stood at 45%. Moreover, the pEC50 with human hepatocytes was 7.92.
As to `CC(C)(C)C1CCC(c2ccc(C(Cc3ccc(C(=O)NCCS(=O)(=O)O)cc3)C(=O)Nc3ccc(-c4ccc(Cl)cc4Cl)cc3)cc2)CC1` (racemic) [drawing 106], the pIC50 on human glucagon receptor is 7.80. For the same molecule, the inhibition in vivo at 30 mg/kg in the series with db/db mouse stood at 25%.
Consider `Cc1cc(Cl)ccc1-c1ccc(NC(=O)[C@H](Cc2ccc(C(=O)NCCS(=O)(=O)O)cc2)c2ccc([C@H]3CC[C@@H](C(C)(C)C)CC3)cc2)cc1`, for which, in series [1], the OBAV in rat was 54%. Besides, on human glucagon receptor, the negative logarithm of the IC50 (pIC50) was 8.05. In addition, the inhibition in vivo at 30 mg/kg in the series on db/db mouse stood at 53%. In the series with human hepatocytes, the pEC50 was 8.52.
For `Cc1cc(Cl)ccc1-c1ccc(NC(=O)C(Cc2ccc(C(=O)NCCS(=O)(=O)O)cc2)c2cccc(C3=CCC(C)(C)CC3)c2)cc1` (racemic) the same measures were 38%, 8.05, 56% and 7.59.
As to `Cc1ccccc1-c1ccc(NC(=O)C(Cc2ccc(C(=O)NCCS(=O)(=O)O)cc2)c2ccc(-c3ccc(C(C)(C)C)cc3)cc2)cc1` (racemic), the pIC50 at human glucagon receptor was 8.00. Also, the inhibition in vivo at 30 mg/kg in the series on db/db mouse was 45%. For the same molecule, the pEC50 in the series with human hepatocytes is 6.71.
The corresponding values for `Cc1cc(C(F)(F)F)ccc1-c1ccc(NC(=O)C(Cc2ccc(C(=O)NCCS(=O)(=O)O)cc2)c2ccc(C3=CCC(C)(C)CC3)cc2)cc1` (racemic) are 7.96, 20% and 7.52.
For the molecule `Cc1cc(C(F)(F)F)ccc1-c1ccc(NC(=O)C(Cc2ccc(C(=O)NCCS(=O)(=O)O)cc2)c2ccc(C3=CCCCC3)cc2)cc1` (racemic), the pIC50 on human glucagon receptor is 7.80. In the series on human hepatocytes, the negative-log EC50 (pEC50) is 7.11.
In the case of `Cc1cc(-c2ccc(NC(=O)[C@H](Cc3ccc(C(=O)NCCS(=O)(=O)O)cc3)c3ccc(-c4ccc(C(C)(C)C)cc4)cc3)cc2)ccc1Cl`, the OBAV in rat in series [1] came to 62%. Also, the pIC50 on human glucagon receptor is 8.22. In addition, the inhibition in vivo at 30 mg/kg in the series with db/db mouse is 33%. The negative-log EC50 (pEC50) with human hepatocytes is 7.51.
As to `CC(C)(C)c1ccc(-c2ccc(C(Cc3ccc(C(=O)NCCS(=O)(=O)O)cc3)C(=O)Nc3ccc(-c4cc(Cl)cc(Cl)c4)cc3)cc2)cc1` (racemic), the pIC50 at human glucagon receptor is 7.82. In addition, in the series on human hepatocytes, the negative logarithm of the EC50 (pEC50) was 6.88.
With `Cc1cccc2oc(-c3ccc(NC(=O)C(Cc4ccc(C(=O)NCCS(=O)(=O)O)cc4)c4ccc(C=CC(C)(C)C)cc4)cc3)nc12` (racemic), on human glucagon receptor, the pIC50 was 7.89. For the same molecule, the inhibition in vivo at 30 mg/kg with db/db mouse worked out at 39%. The pEC50 in the series on human hepatocytes was 7.21.
For `CC(C)(C)c1ccc(-c2ccc(C(Cc3ccc(C(=O)NCCS(=O)(=O)O)cc3)C(=O)Nc3ccc(C4=CCCC4)cc3)cc2)cc1` (racemic) the same measures were 7.77, 30% and 7.19.
